Assay results taken from paper PMC7574619, “Engineering of NADPH Supply Boosts Photosynthesis-Driven Biotransformations” (ACS Catalysis, 2020).

Target: T1, YqjM (Bacillus subtilis, UniProt P54550)
T1 construct: gene namA; purified YqjM flavoenzyme
T1 sequence (P54550 2-338): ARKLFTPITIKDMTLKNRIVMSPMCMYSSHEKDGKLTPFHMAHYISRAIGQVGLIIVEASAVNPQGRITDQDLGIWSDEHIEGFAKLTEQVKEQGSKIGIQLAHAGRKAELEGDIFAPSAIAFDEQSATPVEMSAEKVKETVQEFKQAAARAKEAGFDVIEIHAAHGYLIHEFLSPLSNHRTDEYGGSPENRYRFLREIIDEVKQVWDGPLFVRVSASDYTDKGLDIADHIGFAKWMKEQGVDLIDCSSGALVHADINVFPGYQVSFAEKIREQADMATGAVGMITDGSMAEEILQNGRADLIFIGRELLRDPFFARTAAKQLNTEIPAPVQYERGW
Experiment: stopped-flow, flavin reduction at […] nm, anaerobic
Assay type: biochemical
Details: Tris-HCl 50 mM, pH 7.5, 25 °C; 25 μM YqjM; reductive half reaction

Row | Structure (SMILES) | Kd
1 | NC(=O)C1=CN([C@@H]2O[C@H](COP(=O)(O)OP(=O)(O)OC[C@H]3O[C@@H](n4cnc5c(N)ncnc54)[C@H](O)[C@@H]3O)[C@@H](O)[C@H]2O)C=CC1 [NADH] | 140 ± 24.5 µM
2 | NC(=O)C1=CN([C@@H]2O[C@H](COP(=O)(O)OP(=O)(O)OC[C@H]3O[C@@H](n4cnc5c(N)ncnc54)[C@H](OP(=O)(O)O)[C@@H]3O)[C@@H](O)[C@H]2O)C=CC1 [NADPH] | 39.8 ± 7.1 µM
